Measured values: patent publication US9708336B2, “Metallo-beta-lactamase inhibitors” (priority 2014, dated 2017)
Read-outs that look alike come from different tables or passages of the source.

What was measured:
VIM-1 = VIM-1 (Pseudomonas aeruginosa (strain ATCC 15692 / DSM 22644 / CIP 104116 / JCM 14847 / LMG 12228 / 1C / PRS 101 / PAO1), UniProt A0A0F7KYQ8); test: Enzyme activity: determination of IC50, fluorescence assay with CCF2-FA substrate (VIM-1); format: biochemical
IMP-1 = IMP-1 (Serratia marcescens, UniProt P52699); test: biochemical; format: biochemical
Sequence of IMP-1 (P52699 whole entry, looked up): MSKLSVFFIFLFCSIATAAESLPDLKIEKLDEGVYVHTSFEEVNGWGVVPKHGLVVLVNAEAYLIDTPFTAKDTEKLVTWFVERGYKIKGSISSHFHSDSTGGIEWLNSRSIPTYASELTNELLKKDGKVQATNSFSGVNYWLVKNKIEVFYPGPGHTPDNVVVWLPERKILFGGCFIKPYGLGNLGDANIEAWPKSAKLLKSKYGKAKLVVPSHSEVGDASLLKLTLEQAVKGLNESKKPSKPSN

[1] = test system: Klebsiella pneumoniae expressing VIM-1 (IHMA599644); test: Antibiotic potentiation activity: synergistic concentration (MITC95) with imipenem, OD600 growth; format: cell-based; details: for Klebsiella pneumoniae MITC95: Klebsiella pneumoniae expressing VIM-1 (IHMA599644), 95% growth inhibition; for Klebsiella pneumoniae expressing VIM-1 (IHMA 599644) MITC95: concentration giving 95% inhibition of bacterial growth
Procedure, shortened: (§1)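 Imipenem (4 μg/ml final; 1 μg/ml as an option) was combined with compound against isolates diluted 1:100 from saline suspensions into 1.1× CAMHB. Growth was assessed by absorbance at 22–24 h, 35 °C.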

[2] = test system: Escherichia coli expressing NDM-1 (CLB30005); test: as above; format: cell-based; details: for Escherichia coli MITC95: Escherichia coli expressing NDM-1 (CLB30005), 95% growth inhibition; for Escherichia coli expressing NDM-1 (CLB 30005) MITC95: concentration giving 95% inhibition of bacterial growth
Procedure, shortened: as §1

[3] = test system: Serratia marcescens expressing IMP-1 (CL5741); test: as above; format: cell-based; details: for Serratia marcescens MITC95: Serratia marcescens expressing IMP-1 (CL5741), 95% growth inhibition; for Serratia marcescens expressing IMP-1 (CL5741) MITC95: concentration giving 95% inhibition of bacterial growth
Procedure, shortened: as §1

NDM-1 = NDM-1 (Klebsiella pneumoniae, UniProt C7C422); test: biochemical; format: biochemical; details: read-out: NDM-1 IC50
Sequence of NDM-1 (C7C422 whole entry, looked up, species assumed): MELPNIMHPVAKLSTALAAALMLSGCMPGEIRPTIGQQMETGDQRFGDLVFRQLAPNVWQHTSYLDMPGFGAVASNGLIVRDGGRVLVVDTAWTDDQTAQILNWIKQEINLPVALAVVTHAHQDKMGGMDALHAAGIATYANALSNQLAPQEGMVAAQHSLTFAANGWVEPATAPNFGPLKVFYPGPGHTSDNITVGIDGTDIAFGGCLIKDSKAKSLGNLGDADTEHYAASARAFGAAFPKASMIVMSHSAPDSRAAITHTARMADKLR

[4] = VIM-1 enzyme, CCF2-FA fluorescence assay, read-out: VIM-1 IC50
[5] = IMP-1 enzyme, CCF2-FA fluorescence assay, read-out: IMP-1 IC50
[6] = NDM-1 enzyme, CCF2-FA fluorescence assay
[7] = fluorescence assay with CCF2-FA substrate, read-out: VIM-1 IC50
[8] = fluorescence assay with CCF2-FA substrate, read-out: IMP-1 IC50
[9] = fluorescence assay with CCF2-FA substrate
[10] = VIM-1 IC50, VIM-1 enzyme, CCF2-FA fluorescence assay

| Structure (SMILES) | IC50 (VIM-1; [4]) [nM] | IC50 (IMP-1; [5]) [nM] | Klebsiella pneumoniae MITC95 [1] [µM] | Escherichia coli MITC95 [2] [µM] | Serratia marcescens MITC95 [3] [µM] | IC50 (NDM-1; [6]) [nM] | IC50 (VIM-1; [7]) [nM] | IC50 (IMP-1; [8]) [nM] | Klebsiella pneumoniae expressing VIM-1 (IHMA 599644) MITC95 [1] [µM] | Escherichia coli expressing NDM-1 (CLB 30005) MITC95 [2] [µM] | Serratia marcescens expressing IMP-1 (CL5741) MITC95 [3] [µM] | IC50 (NDM-1; [9]) [nM] | IC50 (VIM-1; [10]) [nM] | IC50 (IMP-1) [nM] | IC50 (VIM-1; VIM-1 IC50, fluorescence assay with CCF2-FA substrate) [nM] |
| --- | --- | --- | --- | --- | --- | --- | --- | --- | --- | --- | --- | --- | --- | --- | --- |
| Cc1ccc(-c2cc(-c3cnn(C)c3)cc(S(N)(=O)=O)c2-c2nn[nH]n2)cc1 [Example 291, 4′-methyl-5-(1-methyl-1H-pyrazol-4-yl)-2-(2H-tetrazol-5-yl)-[1,1′-biphenyl]-3-sulfonamide] | 222 | 98.6 | >200 | 3.906 | 4.688 | 1.47 |  |  |  |  |  |  |  |  |  |
| NS(=O)(=O)c1nccc(-c2ccc3c(c2)CNC3=O)c1-c1nnn[nH]1 [Example 196, 4-(1-oxoisoindolin-5-yl)-3-(1H-tetrazol-5-yl)pyridine-2-sulfonamide] |  |  |  |  |  |  | 50.3 | 1590 | 25 | 1.953 | 125 | 45.6 |  |  |  |
| NCCCc1ccc(-c2cccc(S(N)(=O)=O)c2-c2nnn[nH]2)cc1 [Example 305, 4′-(3-aminopropyl)-2-(1H-tetrazol-5-yl)-[1,1′-biphenyl]-3-sulfonamide] |  | 333 | 18.75 | 1.953 | 4.688 | 50.2 |  |  |  |  |  |  | 103 |  |  |
| COc1ccc(S(N)(=O)=O)c(-c2nn[nH]n2)c1 [Example 253, 4-Methoxy-2-(2H-tetrazol-5-yl)benzenesulfonamide] | 170000 | 46300 | >200 | 3.125 | >200 | 440 |  |  |  |  |  |  |  |  |  |
| CS(=O)(=O)N1CCC(c2cccc(S(N)(=O)=O)c2-c2nn[nH]n2)CC1 [Example 172, 3-(1-(methylsulfonyl)piperidin-4-yl)-2-(2H-tetrazol-5-yl)benzenesulfonamide] |  |  |  |  |  |  | 421 | 720 | 100 | 4.688 | 18.75 | 16.5 |  |  |  |
| CC(C)(C)OC(=O)N1CCN(c2ccc(-c3cccc(S(N)(=O)=O)c3-c3nn[nH]n3)cc2)CC1 [Example 7, tert-butyl 4-[3′-sulfamoyl-2′-(2H-tetrazol-5-yl)biphenyl-4-yl]piperazine-1-carboxylate] |  |  |  |  |  |  | 486 |  | >200 | 6.25 | 12.5 | 3.69 |  | 29.4 |  |
| NS(=O)(=O)c1nccc(-c2ccc(C3CCNCC3)cc2)c1-c1nnn[nH]1 [Example 197, 4-(4-(piperidin-4-yl)phenyl)-3-(1H-tetrazol-5-yl)pyridine-2-sulfonamide] |  |  |  |  |  |  | 70.2 | 582 | 1.563 | 0.3906 | 1.563 | 130 |  |  |  |
| NS(=O)(=O)c1cccc(-c2cnn3ncccc23)c1-c1nn[nH]n1 [Example 105, 3-pyrazolo[1,5-b]pyridazin-3-yl-2-(2H-tetrazol-5-yl)benzenesulfonamide] |  |  |  |  |  |  | 70.4 | 374 | 18.75 | 0.9766 | 31.25 | 14.3 |  |  |  |
| NS(=O)(=O)c1cccc(-c2ccc(-c3noc(C4CCNC4)n3)cc2)c1-c1nn[nH]n1 (stereo not drawn) [Example 250, 4′-(5-(pyrrolidin-3-yl)-1,2,4-oxadiazol-3-yl)-2-(2H-tetrazol-5-yl)-[1,1′-biphenyl]-3-sulfonamide] | 195 | 109 | 100 | 0.7813 | 4.688 | 18 |  |  |  |  |  |  |  |  |  |
| NC(=O)c1cccc(-c2ccnc(S(N)(=O)=O)c2-c2nn[nH]n2)c1 [Example 204, 3-(2-sulfamoyl-3-(2H-tetrazol-5-yl)pyridin-4-yl)benzamide] |  |  |  |  |  |  | 238 | 2860 | 12.5 | 0.3906 | 37.5 | 59 |  |  |  |
| NS(=O)(=O)c1cccc(-c2ccc(-n3nccn3)cc2)c1-c1nn[nH]n1 [Example 5, 2-(2H-tetrazol-5-yl)-4′-(2H-1,2,3-triazol-2-yl)biphenyl-3-sulfonamide] |  |  |  |  |  |  | 56.5 | 72.3 | >200 | 0.7813 | 12.5 | 3.44 |  |  |  |
| NS(=O)(=O)c1cccc(C#Cc2cccnc2)c1-c1nn[nH]n1 [Example 147, 3-(pyridin-3-ylethynyl)-2-(2H-tetrazol-5-yl)benzenesulfonamide] |  |  |  |  |  |  | 1100 | 103 | >200 | 3.125 | 18.75 | 16.4 |  |  |  |
| NS(=O)(=O)c1cccc(C2CCCNC2)c1-c1nn[nH]n1 (stereo not drawn) [Example 175, 3-(piperidin-3-yl)-2-(2H-tetrazol-5-yl)benzenesulfonamide] |  |  |  |  |  |  | 3090 | 12400 | 75 | 0.7813 | 37.5 | 552 |  |  |  |
| NS(=O)(=O)c1cccc(-c2cn(S(=O)(=O)c3ccccc3)c3ncccc23)c1-c1nn[nH]n1 [Example 109, 3-[1-(phensulfonyl)-1H-pyrrolo[2,3-b]pyridin-3-yl]-2-(2H-tetrazol-5-yl)benzenesulfonamide] |  |  |  |  |  |  |  | 38.9 | 18.75 | 12.5 | 12.89 | 2.21 |  |  | 0.637 |
| COc1cncc(-c2cccc(S(N)(=O)=O)c2-c2nn[nH]n2)n1 [Example 40, 3-(6-methoxypyrazin-2-yl)-2-(2H-tetrazol-5-yl)benzenesulfonamide] |  |  |  |  |  |  | 560 | 3050 | 200 | 3.125 | 200 | 42.2 |  |  |  |
| Cc1ccc(-c2cc(-c3ccc4c(c3)CNC4=O)cc(S(N)(=O)=O)c2-c2nn[nH]n2)cc1 [Example 290, 4′-Methyl-5-(1-oxoisoindolin-5-yl)-2-(2H-tetrazol-5-yl)-[1,1′-biphenyl]-3-sulfonamide] | 34.3 | 19.7 | >200 | 3.516 | 19.53 | 0.637 |  |  |  |  |  |  |  |  |  |
| N#Cc1ccc(-c2cccc(S(N)(=O)=O)c2-c2nnn[nH]2)cc1 [Example 308, 4′-cyano-2-(1H-tetrazol-5-yl)-[1,1′-biphenyl]-3-sulfonamide] |  | 192 | 75 | 2.344 | 9.375 | 11.3 |  |  |  |  |  |  | 164 |  |  |
| Cc1ccc(-c2cc(-c3ccc4c(c3)CNC4)cc(S(N)(=O)=O)c2-c2nn[nH]n2)cc1 [Example 294, 5-(isoindolin-5-yl)-4′-methyl-2-(2H-tetrazol-5-yl)-[1,1′-biphenyl]-3-sulfonamide] |  | 29.4 | 37.5 | 0.3802 | 0.6406 | 0.637 |  |  |  |  |  |  | 193 |  |  |
| NS(=O)(=O)c1nccc(-c2ccc(C3CCNC3)cc2)c1-c1nnn[nH]1 (stereo not drawn) [Example 198, 4-(4-(pyrrolidin-3-yl)phenyl)-3-(1H-tetrazol-5-yl)pyridine-2-sulfonamide] |  |  |  |  |  |  | 101 | 1170 | 2.344 | 0.3906 | 3.125 | 68.4 |  |  |  |
| NS(=O)(=O)c1cccc(-c2cccc(-n3nccn3)c2)c1-c1nn[nH]n1 [Example 70, 2-(2H-tetrazol-5-yl)-3′-(2H-1,2,3-triazol-2-yl)biphenyl-3-sulfonamide] |  |  |  |  |  |  | 28.9 | 105 | 150 | 1.563 | 18.75 | 2 |  |  |  |
